In experiment [1] the test system is Naive male albino BKW mice. As to the kind of experiment: Anti-anxiety test (light/dark two-compartment box, method of Costall et al). Type of experiment: in vivo. Conditions: 40 min pretreatment, n = 5. As for the experimental part: (§1) The anxiolytic activity was determined by the method of Costall et al details of which are to be found in the pharmacology examples later in this specification. In brief, the method involves seeing whether the compound under test reduced the natural anxiety of mice in brightly-lit areas. Anxiolytic activity was also assessed by the method of Crawley and Goodwin (Pharm. Biochem. Behavior (1980), 13,167-170).
Naive male albino BKW mice, 25-30g, were used in all experiments. 10 mice were normally housed in each cage and given free access to food and water. The mice were kept on a 12h light and 12h dark cycle with lights off at 8.00am and on at 8.00pm.
The apparatus used for the detection of changes in anxiety consisted of an open topped box (45 x 27 x 27cm high) one third painted black and illuminated under a dim red light (1 x 60W) and partitioned from the remainder of the box which was painted white and brightly illuminated with a 100W light source located 17cm above the box. Access between these areas was enabled by means of a 7.5 x 7.5cm opening located at floor level in the centre of the partition. The floor area was lined into 9cm squares. The test was conducted between 13.00 and 18.00h in a quiet, darkened room illuminated with red light only. Animals were thus taken in a dark container from a dark holding room to the dark testing room.
Animals that had received drug or vehicle injections were placed individually into the centre of the white area and their behaviour observed over a 5 min period by remote video recording.
Animals were used in treatment groups of 5 and vehicle controls were run on each day of testing. Results were anlysed using Single-Factor Analysis of Variance followed by Dunnett's procedure for comparing all treatments with control.
Compounds of Example 14 and Comparison Example 1 were dissolved in minimum HCI made up to volume with distilled water. Doses were expressed as the base and were administered as a 40 min pretreatment in a volume of 1 mIi100g body weight. Administration was by the subcutaneous route.

The test system of another experiment is mouse. The experiment in a line: Exploratory behaviour of the mouse in a two-compartment box (method of Crawley and Goodwin). The format is in vivo. The arrangement: key: +: significant increase vs. control; -: significant decrease vs. control; ns: no significant change vs. control. Conditions: dose 0.1-10 mg/kg ip, change vs. control. Here is the method: as §1
Compounds of the invention have been studied in the laboratory animal to evaluate their anxiolytic activity. As a typical compound of the invention, R(+)-4-Amino-N-(3-quinuclidinyl)-5-chloro-2-methoxy benzamide dihydrochloride (R(+)-4-Amino-N-(1-azabicyclo[2.2.2]oct-3-yl)-5-chloro-2-methoxybenzamide dihydrochloride), the compound of Example 14, was investigated for its anxiolytic activity, which was compared with that of the racemate (unresolved product of Example 2) and the corresponding enantiomer of absolute configuration S (product of Comparison Example 1).
The method used in this example was that described by Crawley and Goodwin (Pharm. Biochem. Behavior (1980) 13, 167-170), where aspects of behaviour of the mouse are compared in a lit zone and a dark zone of a two-compartment box.

[2] abbreviates: Black Section, 0.1 mg/kg subcutaneous.
Where [3] appears, read: Black Section, 1.0 mg/kg subcutaneous.
Setting [4] is: Black Section, 10.0 mg/kg subcutaneous.
Setting [5] is: White Section, 0.1 mg/kg subcutaneous.
The mark [6] stands for this setting: White Section, 1.0 mg/kg subcutaneous.
[7] abbreviates: White Section, 10.0 mg/kg subcutaneous.

Counter-ions that a name gives are not always drawn.

For the molecule `COc1cc(N)c(Cl)cc1C(=O)N[C@@H]1CN2CCC1CC2` [Comparison Example 1, S(-)-4-Amino-N-(3-quinuclidinyl)-5-chloro-2-methoxybenzamide hydrochloride], the Crossings/5min in experiment [1] (setting [2]) is reported as 39.4±3.0; in experiment [1] (setting [3]), 37.6±3.8; in experiment [1] (setting [4]), 50.8±5.2; in experiment [1] (setting [5]), 23.2±2.3; in experiment [1] (setting [6]), 26.8±2.7; in experiment [1] (setting [7]) it was 24.7±2.1. For the same molecule, the Rearings/5 min in experiment [1] (setting [2]) is 35.2±3.1; in experiment [1] (setting [3]) it was 38.1±3.2; in experiment [1] (setting [4]), 48.3±4.1; in experiment [1] (setting [5]), 23.0±2.1; in experiment [1] (setting [6]), 21.5±2.0; in experiment [1] (setting [7]), 24.0±1.9. Further, the Movement activity entry with mouse (Dark zone) and in the experiment with mouse (Light zone) was “ns” each time. In addition, the Straightenings result in the experiment with mouse (Dark zone) and in the experiment on mouse (Light zone) was “ns” in each case.
With `COc1cc(N)c(Cl)cc1C(=O)NC1CN2CCC1CC2` (racemic) [Compound of Example 2], in the experiment on mouse (Dark zone), the Movement activity result was “-” and the Straightenings result is given as “-”. Further, in the experiment with mouse (Light zone), the Movement activity result is listed as “+” and the Straightenings entry was “+”.
Take `COc1cc(N)c(Cl)cc1C(=O)N[C@H]1CN2CCC1CC2` [Example 14, R(+)-4-Amino-N-(3-quinuclidinyl)-5-chloro-2-methoxybenzamide hydrochloride]: the Crossings/5min in experiment [1] (setting [2]) is listed as 14.6±1.5^+++; in experiment [1] (setting [3]) it was 13.6±1.2^+++; in experiment [1] (setting [4]), 17.6±1.4^+++; in experiment [1] (setting [5]) it was 52.9±5.0; in experiment [1] (setting [6]), 87.4±7.6; in experiment [1] (setting [7]) it was 73.7±7.2. Moreover, the Rearings/5 min in experiment [1] (setting [2]) is on record as 13.6±1.1^+++; in experiment [1] (setting [3]), 13.0±1.4^+++; in experiment [1] (setting [4]) it was 14.7±1.2^+++; in experiment [1] (setting [5]), 64.8±6.0; in experiment [1] (setting [6]), 82.4±7.4; in experiment [1] (setting [7]), 76.2±7.6. For the same molecule, the results for the Movement activity result in the experiment with mouse (Dark zone) and in the experiment on mouse (Light zone) were “-” and “+”, respectively. In addition, the Straightenings result in the experiment with mouse (Dark zone) is “-”; in the experiment with mouse (Light zone), “+”.
